Source: US20230192700A1, “PYRAZOLOPYRAZINES ACTING ON CANCERS VIA INHIBITION OF CDK12” (Bayer Aktiengesellschaft, priority 2020, published 2023)

What was measured:
[1] = target: T1, CDK2/CyclinE (Homo sapiens, UniProt P24941); assay: CDK2/CycE kinase assay (TR-FRET); type: biochemical; details: 2 mM ATP (high ATP); median; read-out: CDK2/CyclinE, 2 mM ATP (high ATP) IC50 - [mol/l] (median)
T1 construct: GST; purchased ProQinase GmbH (Freiburg, Germany); host or cells: insect cells (Sf9)
Text: 2.4 CDK2/CycE Kinase Assay
CDK2/CycE-inhibitory activity of compounds of the present invention was quantified employing the CDK2/CycE TR-FRET assay as described in the following paragraphs.
Recombinant fusion proteins of GST and human CDK2 and of GST and human CycE, expressed in insect cells (Sf9) and purified by Glutathion-Sepharose affinity chromatography, were purchased from ProQinase GmbH (Freiburg, Germany). As substrate for the kinase reaction biotinylated peptide biotin-Ttds-YISPLKSPYKISEG (C-terminus in amid form) was used which can be purchased e.g. form the company JERINI peptide technologies (Berlin, Germany).
For the assay 50 nanoL of a 100 fold concentrated solution of the test compound in DMSO was pipetted into a black low volume 384 well microtiter plate or a black 1536 well microtiter plate (both Greiner Bio-One, Frickenhausen, Germany), 2 microL of a solution of CDK2/CycE in aqueous assay buffer [50 millimol/L Tris/HCl pH 8.0, 10 millimol/L MgCl2, 1.0 millimol/L dithiothreitol, 0.1 millimol/L sodium ortho-vanadate, 0.01% (v/v) Nonidet-P40 (Sigma)] were added and the mixture was incubated for 15 min at 22° C. to allow pre-binding of the test compounds to the enzyme before the start of the kinase reaction. Then the kinase reaction was started by the addition of 3 microL of a solution of adenosine-tri-phosphate (ATP, 3.33 millimol/L=>final conc. in the 5 microL assay volume is 2 millimol/L) and substrate (1.25 micromol/L=>final conc. in the 5 microL assay volume is 0.75 micromol/L) in assay buffer and the resulting mixture was incubated for a reaction time of 25 min at 22° C. The concentration of CDK2/CycE was adjusted depending of the activity of the enzyme lot and was chosen appropriate to have the assay in the linear range, typical concentrations were in the range of 10 ng/mL. The reaction was stopped by the addition of 3 microL of a solution of TR-FRET detection reagents (0.333 micromol/L streptavidine-XL665 [Cisbio Bioassays, Codolet, France] and 1.67 nanomol/L anti-RB(pSer807/pSer811)-antibody from BD Pharmingen [#558389] and 2 nanomol/L LANCE EU-W1024 labeled anti-mouse IgG antibody [Perkin-Elmer, product no. AD0077, as an alternative a Terbium-cryptate-labeled anti-mouse IgG antibody from Cisbio Bioassays can be used]) in an aqueous EDTA-solution (167 millimol/L EDTA, 0.2% (w/v) bovine serum albumin in 100 millimol/L HEPES pH 7.5).
The resulting mixture was incubated 1 h at 22° C. to allow the formation of complex between the phosphorylated biotinylated peptide and the detection reagents. Subsequently the amount of phosphorylated substrate was evaluated by measurement of the resonance energy transfer from the Eu-chelate to the streptavidine-XL. Therefore, the fluorescence emissions at 620 nm and 665 nm after excitation at 350 nm was measured in a TR-FRET reader, e.g. a Pherastar (BMG Labtechnologies, Offenburg, Germany) or a Viewlux (Perkin-Elmer). The ratio of the emissions at 665 nm and at […] was taken as the measure for the amount of phosphorylated substrate. The data were normalised (enzyme reaction without inhibitor=0% inhibition, all other assay components but no enzyme=100% inhibition).

[2] = target: T2, CDK12 (Homo sapiens, UniProt Q9NYV4); assay: CDK12 nuclear protein level: immunofluorescence/high content analysis in CAL-120 cells; type: cell-based; details: for DC50: CAL-120 cells, 24 h, nuclear CDK12 staining intensity, median, read-out: CDK12 degradation IF DC50 - [mol/l] (median); for (IC50 CDK12 high ATP) to (Degradation DC50 CDK12) ratio: ratio of IC50 CDK12 hATP (2 mM ATP) to DC50 CDK12 (IF, CAL-120)
T2 construct: endogenous in cells; host or cells: CAL-120 human breast cancer cells (DSMZ ACC 459)
Protocol: 6. CDK12 Nuclear Protein Level: Immunofluorescence/High Content Analysis
In the context of the present invention, the term “DC50 CDK12” refers to the DC50 values obtained according to the assay described in this section (6) herein below, i.e. the DC50 values for the degradation of CDK12.:
CAL-120 human breast cancer cells (DSMZ ACC 459) are seeded in 1536-well microtiter plates (800 cells per well) containing 50 nanoL of compounds in Dose-Response. Control wells received DMSO or Reference Example 1. Plates are then incubated for 24 h at 37° C. in an humidified incubator and fixed with 4% PFA for 10 min. Then immunofluorescence (IF) against CDK12 (CellSignalling CDK12 Antibody #11973, rabbit, 1:100 dilution) is performed using standard IF protocols. Cells are then stained with Hoechst 33342 (Life Technologies, H-1399, 0.1 microg/mL) and imaged on an automated confocal microscopy system (e.g. Perkin Elmer Opera Phenix). Nuclear and cytoplasmic intensity as well as the nuclear/cytoplasmic intensity ratio is determined by automated image analysis using custom generated scripts (MetaXpress). Data is then transferred to Genedata Screener software, normalized to DMSO and control and DC50 values (degrading concentration to achieve 50% reduction of nuclear CDK12 staining intensity relative to controls) are reported.

T2 sequence (Q9NYV4 whole entry): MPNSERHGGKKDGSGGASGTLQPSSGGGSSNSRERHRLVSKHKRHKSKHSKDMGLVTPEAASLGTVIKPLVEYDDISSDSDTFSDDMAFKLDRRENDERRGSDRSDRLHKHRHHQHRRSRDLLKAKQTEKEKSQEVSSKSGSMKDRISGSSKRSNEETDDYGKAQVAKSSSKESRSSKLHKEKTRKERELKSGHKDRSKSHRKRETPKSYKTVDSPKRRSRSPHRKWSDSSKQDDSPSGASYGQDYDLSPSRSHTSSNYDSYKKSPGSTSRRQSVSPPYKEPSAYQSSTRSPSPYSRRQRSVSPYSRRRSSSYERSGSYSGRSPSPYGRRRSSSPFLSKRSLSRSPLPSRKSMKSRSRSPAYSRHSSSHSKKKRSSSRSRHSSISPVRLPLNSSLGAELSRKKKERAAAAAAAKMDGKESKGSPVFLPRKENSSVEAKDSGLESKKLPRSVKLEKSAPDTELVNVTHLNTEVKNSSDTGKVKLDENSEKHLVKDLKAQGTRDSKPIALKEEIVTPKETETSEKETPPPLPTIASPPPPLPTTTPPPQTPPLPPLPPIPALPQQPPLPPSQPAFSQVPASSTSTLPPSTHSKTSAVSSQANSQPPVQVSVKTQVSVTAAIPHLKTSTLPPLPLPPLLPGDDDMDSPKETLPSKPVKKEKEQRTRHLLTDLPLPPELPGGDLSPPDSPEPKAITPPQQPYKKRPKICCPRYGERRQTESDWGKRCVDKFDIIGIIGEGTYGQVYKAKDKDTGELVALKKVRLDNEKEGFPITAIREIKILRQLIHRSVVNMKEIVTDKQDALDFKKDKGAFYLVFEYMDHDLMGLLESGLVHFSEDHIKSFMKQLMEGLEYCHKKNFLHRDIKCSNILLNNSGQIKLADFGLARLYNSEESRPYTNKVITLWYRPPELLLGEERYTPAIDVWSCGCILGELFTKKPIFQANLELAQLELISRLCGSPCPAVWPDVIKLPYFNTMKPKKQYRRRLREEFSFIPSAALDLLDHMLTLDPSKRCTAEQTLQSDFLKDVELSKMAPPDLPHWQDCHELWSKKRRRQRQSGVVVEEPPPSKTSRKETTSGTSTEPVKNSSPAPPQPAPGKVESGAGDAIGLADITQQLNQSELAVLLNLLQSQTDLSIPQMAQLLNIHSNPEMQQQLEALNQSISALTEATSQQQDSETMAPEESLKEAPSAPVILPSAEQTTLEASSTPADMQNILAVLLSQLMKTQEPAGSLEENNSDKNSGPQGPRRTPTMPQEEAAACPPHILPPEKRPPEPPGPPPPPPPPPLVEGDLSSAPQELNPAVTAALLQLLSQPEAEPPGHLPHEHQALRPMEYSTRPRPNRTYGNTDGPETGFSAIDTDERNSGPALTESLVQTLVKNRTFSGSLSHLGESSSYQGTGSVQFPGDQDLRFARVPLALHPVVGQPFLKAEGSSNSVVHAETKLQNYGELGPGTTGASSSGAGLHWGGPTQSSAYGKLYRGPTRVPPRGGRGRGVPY
T2 sequence (O75909 whole entry partner): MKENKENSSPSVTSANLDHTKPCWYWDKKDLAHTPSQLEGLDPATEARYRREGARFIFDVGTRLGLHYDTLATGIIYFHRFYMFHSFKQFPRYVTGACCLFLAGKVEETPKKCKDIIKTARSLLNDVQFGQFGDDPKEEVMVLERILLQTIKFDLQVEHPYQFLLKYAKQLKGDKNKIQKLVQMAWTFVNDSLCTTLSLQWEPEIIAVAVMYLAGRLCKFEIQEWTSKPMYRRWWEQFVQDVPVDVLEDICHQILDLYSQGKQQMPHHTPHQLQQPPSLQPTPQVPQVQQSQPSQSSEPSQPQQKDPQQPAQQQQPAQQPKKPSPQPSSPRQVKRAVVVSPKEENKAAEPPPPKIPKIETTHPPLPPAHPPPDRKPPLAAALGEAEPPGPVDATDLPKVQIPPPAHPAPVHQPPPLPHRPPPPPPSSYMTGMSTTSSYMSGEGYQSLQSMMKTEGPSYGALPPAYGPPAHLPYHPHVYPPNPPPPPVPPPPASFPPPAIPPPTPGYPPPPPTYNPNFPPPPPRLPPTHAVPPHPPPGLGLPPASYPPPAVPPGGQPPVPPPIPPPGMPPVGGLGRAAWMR

IC50 [1] [nM]	DC50 [2] [nM]	(IC50 CDK12 high ATP) to (Degradation DC50 CDK12) ratio [2]	Compound
> 20000	127	>133	Cc1cnc2c(NCc3nc4ccccc4[nH]3)nn(C3CCN(C)CC3)c2n1 [Example 77, N-[(1H-benzimidazol-2-yl)methyl]-6-methyl-1-(1-methylpiperidin-4-yl)-1H-pyrazolo[3,4-b]pyrazin-3-amine]
> 20000	28.7	>697	Cc1c(Cl)ccc2[nH]c(CNc3nn(C4CCN(C)CC4)c4nc(C5CC5)cnc34)nc12 [Example 21, N-[(5-chloro-4-methyl-1H-benzimidazol-2-yl)methyl]-6-cyclopropyl-1-(1-methylpiperidin-4-yl)-1H-pyrazolo[3,4-b]pyrazin-3-amine]
> 20000	19.4	>1116	OCCn1nc(NCc2nc3ccccc3[nH]2)c2ncc(C3CC3)nc21 [Example 66, 2-(3-{[(1H-benzimidazol-2-yl)methyl]amino}-6-cyclopropyl-1H-pyrazolo[3,4-b]pyrazin-1-yl)ethan-1-ol]
> 20000	74.9	>267	CC(C)(C)OC(=O)N1CCC(n2nc(NCc3nc4ccccc4[nH]3)c3ncc(C4CC4)nc32)CC1 [Example 11, tert-butyl 4-(3-{[(1H-benzimidazol-2-yl)methyl]amino}-6-cyclopropyl-1H-pyrazolo[3,4-b]pyrazin-1-yl)piperidine-1-carboxylate]
> 20000	13.2	>1516	CN1CCCC(n2nc(NCc3nc4ccccc4[nH]3)c3ncc(C4CC4)nc32)CC1 (single isomer, unassigned) [Example 38, (−) or (+)-N-[(1H-benzimidazol-2-yl)methyl]-6-cyclopropyl-1-[(4R*)-1-methylazepan-4-yl]-1H-pyrazolo[3,4-b]pyrazin-3-amine]
> 20000	17.5	>1142	c1ccc2[nH]c(CNc3nn(C4CCOC4)c4nc(C5CC5)cnc34)nc2c1 (single isomer, unassigned) [Example 18, (-) or (+) -N-[(1H-benzimidazol-2-yl)methyl]-6-cyclopropyl-1-[oxolan-3-yl]-1H-pyrazolo[3,4-b]pyrazin-3-amine]
> 20000	7.12		CC(C)(O)C1CC(n2nc(NCc3nc4ccccc4[nH]3)c3ncc(C4CC4)nc32)C1 (mixture of isomers) [Example 48, 2-[cis/trans-3-(3-{[(1H-benzimidazol-2-yl)methyl]amino}-6-cyclopropyl-1H-pyrazolo[3,4-b]pyrazin-1-yl)cyclobutyl]propan-2-ol]
> 20000	9.53		O[C@H]1C[C@H](n2nc(NCc3nc4ccccc4[nH]3)c3ncc(C4CC4)nc32)C1 [Example 43, trans-3-(3-{[(1H-benzimidazol-2-yl)methyl]amino}-6-cyclopropyl-1H-pyrazolo[3,4-b]pyrazin-1-yl)cyclobutan-1-ol]
> 20000	22.8		OC[C@H]1C[C@@H](n2nc(NCc3nc4ccccc4[nH]3)c3ncc(C4CC4)nc32)C1 [Example 47, [cis-3-(3-{[(1H-benzimidazol-2-yl)methyl]amino}-6-cyclopropyl-1H-pyrazolo[3,4-b]pyrazin-1-yl)cyclobutyl]methanol]
> 20000	16	>509	Cc1c(F)ccc2[nH]c(CNc3nn(C4CCN(C)CC4)c4nc(C5CC5)cnc34)nc12 [Example 26, 6-cyclopropyl-N-[(5-fluoro-4-methyl-1H-benzimidazol-2-yl)methyl]-1-(1-methylpiperidin-4-yl)-1H-pyrazolo[3,4-b]pyrazin-3-amine]
> 20000	21	>937	COC(C)(C)CCn1nc(NCc2nc3ccccc3[nH]2)c2ncc(C3CC3)nc21 [Example 67, N-[(1H-benzimidazol-2-yl)methyl]-6-cyclopropyl-1-(3-methoxy-3-methylbutyl)-1H-pyrazolo[3,4-b]pyrazin-3-amine]
> 20000	4.2	>2380	CN1CCC(n2nc(NCc3nc4ccccc4[nH]3)c3ncc(C4CC4)nc32)CC1 [Example 1, N-[(1H-benzimidazol-2-yl)methyl]-6-cyclopropyl-1-(1-methylpiperidin-4-yl)-1H-pyrazolo[3,4-b]pyrazin-3-amine]
> 20000	7.11		O[C@H]1CC[C@H](n2nc(NCc3nc4cc(F)ccc4[nH]3)c3ncc(C4CC4)nc32)CC1 [Example 56, trans-4-(6-cyclopropyl-3-{[(5-fluoro-1H-benzimidazol-2-yl)methyl]amino}-1H-pyrazolo[3,4-b]pyrazin-1-yl)cyclohexan-1-ol]
> 20000	13.8		OC[C@H]1C[C@H](n2nc(NCc3nc4ccccc4[nH]3)c3ncc(C4CC4)nc32)C1 [Example 46, [trans-3-(3-{[(1H-benzimidazol-2-yl)methyl]amino}-6-cyclopropyl-1H-pyrazolo[3,4-b]pyrazin-1-yl)cyclobutyl]methanol]
> 20000	10.7		O[C@H]1CC[C@@H](n2nc(NCc3nc4ccccc4[nH]3)c3ncc(C4CC4)nc32)CC1 [Example 51, cis-4-(3-{[(1H-benzimidazol-2-yl)methyl]amino}-6-cyclopropyl-1H-pyrazolo[3,4-b]pyrazin-1-yl)cyclohexan-1-ol]
> 20000	8.53	>2344	c1ccc2[nH]c(CNc3nn(C4CCNCC4)c4nc(C5CC5)cnc34)nc2c1 [Example 12, N-[(1H-benzimidazol-2-yl)methyl]-6-cyclopropyl-1-(piperidin-4-yl)-1H-pyrazolo[3,4-b]pyrazin-3-amine]
> 20000	8.53	>2344	Cc1cccc2[nH]c(CNc3nn(C4CCN(C)CC4)c4nc(C5CC5)cnc34)nc12 [Example 8, 6-cyclopropyl-N-[(4-methyl-1H-benzimidazol-2-yl)methyl]-1-(1-methylpiperidin-4-yl)-1H-pyrazolo[3,4-b]pyrazin-3-amine]
> 20000	17.1	>1376	CN1CCC(n2nc(NCc3nc4cc(F)c(F)cc4[nH]3)c3ncc(C4CC4)nc32)CC1 [Example 30, 6-cyclopropyl-N-[(5,6-difluoro-1H-benzimidazol-2-yl)methyl]-1-(1-methylpiperidin-4-yl)-1H-pyrazolo[3,4-b]pyrazin-3-amine]
